# Results: US9346815B2, “5-chloro-2-difluoromethoxyphenyl pyrazolopyrimidine compounds, compositions and methods of use thereof” (Genentech, Inc., priority 2014, dated 2016)
# pEC50, pKi: −log10 of the molar value.
# Assays:
# [1] = Clearance assay: mouse intravenous (IV) clearance; format: in vivo; settings: female BALB/c mice; for IV Mouse CL, % of liver blood flow: single IV dose of 1 mg/kg, clearance as % of mouse liver blood flow; for clearance: mouse, plasma, single IV dose of 1 mg/kg via the tail vein, read-out: IV Mouse CL
# Text: In certain instances high systemic clearance of a drug substance may be of benefit. For example, in the treatment of pulmonary diseases it may be beneficial to have high drug concentrations in the lung, with lower concentrations in the bloodstream or peripheral organs. In such cases, it may be advantageous to administer a drug substance with high systemic clearance via the inhaled delivery route. This approach may maximize pharmacologic activity of the drug substance in the lung while minimizing the possibility of on-target toxicity elsewhere in the body. The functional groups appended to the 5-chloro-2-difluoromethoxyphenyl pyrazolopyrimidine scaffold affect systemic clearance.
# Female BALB/c mice were obtained from Charles River Labs (Hollister, Calif. USA). Twelve animals were given a single IV dose of 1 mg/kg of compounds via the tail vein. A representative dose solution was prepared as follows: the compound was dissolved in a mixture of 5% dimethylsulfoxide (DMSO), 35% polyethylene glycol (PEG 400), and 60% water (v/v/v), respectively, and administered at a dosing volume of 5 mL/kg. Mice weighed approximately 20-25 g at the start of the study. After intravenous administration of compounds, each animal was bled twice via retro-orbital and cardiac puncture. PK time points were collected at 2 min, 5 min, 15 min, 30 min, 1 hr, 2 hr, 4 hr, and 8 hr post-dose. Plasma samples were stored at approximately −80° C. until thawed for LC-MS/MS analysis. PK data analysis was performed on mean plasma concentration-time data and PK parameters were determined by non compartmental methods using WinNonlin® Enterprise, version 5.2.1 (Pharsight Corporation; Mountain View, Calif.).
# [2] = biological target: isolated recombinant JAK1 kinase domain (Homo sapiens (Human), UniProt P23458); experiment: JAK1 enzyme assay (Caliper LabChip, peptide phosphorylation); format: biochemical; settings: isolated recombinant JAK1 kinase domain, 25 μM ATP
# [3] = test system: JAK1-dependent STAT6 phosphorylation downstream of IL-13 stimulation in TF-1 human erythroleukemia cells; experiment: JAK1 pathway assay in TF-1 cells (IL-13-pSTAT6, MSD); format: cell-based; settings: Homo sapiens, TF-1, TF-1 cells, read-out: IL13-pSTAT6 EC50_TF-1
# In short: (§1)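 Inhibitors were added to TF-1 cells (GM-CSF-starved, serum-free) for 30 min or to BEAS-2B cells (complete medium) for 1 hr at 37° C. MSD detected pSTAT6.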
# [4] = test system: JAK1-dependent STAT6 phosphorylation downstream of IL-13 stimulation in BEAS-2B human bronchial epithelial cells; experiment: JAK1 pathway assay in BEAS-2B cells (IL-13-pSTAT6, MSD); format: cell-based; settings: read-out: IL13-pSTAT6 EC50 (uM)_BEAS-2B
# In short: as §1
# [5] = biological target: isolated recombinant JAK2 kinase domain (Homo sapiens (Human), UniProt O60674); experiment: JAK2 enzyme assay (Caliper LabChip, peptide phosphorylation); format: biochemical; settings: 25 μM ATP
# isolated recombinant JAK2 kinase domain, sequence (O60674 849-1124): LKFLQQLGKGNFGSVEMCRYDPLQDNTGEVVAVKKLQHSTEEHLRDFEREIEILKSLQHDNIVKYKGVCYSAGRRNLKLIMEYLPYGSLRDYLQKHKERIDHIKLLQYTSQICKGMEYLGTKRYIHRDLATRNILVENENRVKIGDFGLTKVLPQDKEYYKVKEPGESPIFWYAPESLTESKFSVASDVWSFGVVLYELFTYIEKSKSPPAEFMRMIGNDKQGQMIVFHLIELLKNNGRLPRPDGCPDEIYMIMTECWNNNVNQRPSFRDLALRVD
# isolated recombinant JAK1 kinase domain, sequence (P23458 875-1153): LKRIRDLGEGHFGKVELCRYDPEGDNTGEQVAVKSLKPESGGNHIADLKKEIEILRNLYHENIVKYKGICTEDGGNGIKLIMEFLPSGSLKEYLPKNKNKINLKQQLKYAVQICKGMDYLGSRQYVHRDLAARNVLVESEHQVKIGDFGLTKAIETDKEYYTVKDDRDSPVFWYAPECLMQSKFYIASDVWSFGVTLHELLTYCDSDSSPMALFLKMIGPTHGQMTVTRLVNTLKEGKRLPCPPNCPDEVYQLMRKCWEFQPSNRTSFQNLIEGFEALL
"IV Mouse CL, % of liver blood flow [1] [%]",clearance [1] [mL/min/kg],pKi [2],pEC50 [3],pKi [5],SMILES,EC50 [4] [µM]
71,64,9.11,8.13,9.55,"CN(C)CC#Cc1nc(-c2cc(Cl)ccc2OC(F)F)c(NC(=O)c2cnn3cccnc23)s1 [Example 209, Pyrazolo[1,5-a]pyrimidine-3-carboxylic acid [4-(5-chloro-2-difluoromethoxy-phenyl)-2-(3-dimethylamino-prop-1-ynyl)-thiazol-5-yl]-amide]",0.0415
>100,139,9.47,8.24,9.15,"CN(CCC#N)C1CCN(C(=O)Cn2cc(NC(=O)c3cnn4cccnc34)c(-c3cc(Cl)ccc3OC(F)F)n2)CC1 [Example 63, Pyrazolo[1,5-a]pyrimidine-3-carboxylic acid [3-(5-chloro-2-difluoromethoxy-phenyl)-1-(2-{4-[(2-cyano-ethyl)-methyl-amino]-piperidin-1-yl}-2-oxo-ethyl)-1H-pyrazol-4-yl]-amide]",0.0122
>100,234,9.40,8.77,9.12,"CN(CC(F)(F)F)C1CCN(C(=O)Cn2cc(NC(=O)c3cnn4cccnc34)c(-c3cc(Cl)ccc3OC(F)F)n2)CC1 [Example 99, N-[3-[5-chloro-2-(difluoromethoxy)phenyl]-1-[2-[4-[methyl(2,2,2-trifluoroethyl)amino]-1-piperidyl]-2-oxo-ethyl]pyrazol-4-yl]pyrazolo[1,5-a]pyrimidine-3-carboxamide]",0.0305
>100,216,9.10,7.78,9.09,"CN1C[C@@H]2CN(C(=O)Cn3cc(NC(=O)c4cnn5cccnc45)c(-c4cc(Cl)ccc4OC(F)F)n3)C[C@@H]2C1 [Example 3, Cis-pyrazolo[1,5-a]pyrimidine-3-carboxylic acid {3-(5-chloro-2-difluoromethoxyphenyl)1-[2-(5-methylhexahydropyrrolo[3,4-c]pyrrol-2-yl)-2-oxoethyl]-1H-pyrazol-4-yl}amide]",0.0324
>100,95,9.05,8.21,9.24,"COCCNCCn1cc(NC(=O)c2cnn3cccnc23)c(-c2cc(Cl)ccc2OC(F)F)n1 [Example 294, N-[3-[5-chloro-2-(difluoromethoxy)phenyl]-1-[2-(2-methoxyethylamino)ethyl]pyrazol-4-yl]pyrazolo[1,5-a]pyrimidine-3-carboxamide]",0.0367
>100,140,9.21,8.07,8.96,"CN(CC(F)(F)c1ccccc1)C1CCN(C(=O)Cn2cc(NC(=O)c3cnn4cccnc34)c(-c3cc(Cl)ccc3OC(F)F)n2)CC1 [Example 102, N-[3-[5-chloro-2-(difluoromethoxy)phenyl]-1-[2-[4-[(2,2-difluoro-2-phenyl-ethyl)-methyl-amino]-1-piperidyl]-2-oxo-ethyl]pyrazol-4-yl]pyrazolo[1,5-a]pyrimidine-3-carboxamide]",0.0347
